# Tests used:
# human TTK = target: T1, human TTK (Homo sapiens, UniProt P33981); assay: TTK inhibition assay (indirect ELISA); format: biochemical; settings: GST-TTK 0.68 nM, 16 μM ATP; read-out: IC50 Ranges TTK
# T1 construct: amino terminal GST fusion of full length human TTK; purchased Invitrogen
# T1 sequence (P33981 1-857): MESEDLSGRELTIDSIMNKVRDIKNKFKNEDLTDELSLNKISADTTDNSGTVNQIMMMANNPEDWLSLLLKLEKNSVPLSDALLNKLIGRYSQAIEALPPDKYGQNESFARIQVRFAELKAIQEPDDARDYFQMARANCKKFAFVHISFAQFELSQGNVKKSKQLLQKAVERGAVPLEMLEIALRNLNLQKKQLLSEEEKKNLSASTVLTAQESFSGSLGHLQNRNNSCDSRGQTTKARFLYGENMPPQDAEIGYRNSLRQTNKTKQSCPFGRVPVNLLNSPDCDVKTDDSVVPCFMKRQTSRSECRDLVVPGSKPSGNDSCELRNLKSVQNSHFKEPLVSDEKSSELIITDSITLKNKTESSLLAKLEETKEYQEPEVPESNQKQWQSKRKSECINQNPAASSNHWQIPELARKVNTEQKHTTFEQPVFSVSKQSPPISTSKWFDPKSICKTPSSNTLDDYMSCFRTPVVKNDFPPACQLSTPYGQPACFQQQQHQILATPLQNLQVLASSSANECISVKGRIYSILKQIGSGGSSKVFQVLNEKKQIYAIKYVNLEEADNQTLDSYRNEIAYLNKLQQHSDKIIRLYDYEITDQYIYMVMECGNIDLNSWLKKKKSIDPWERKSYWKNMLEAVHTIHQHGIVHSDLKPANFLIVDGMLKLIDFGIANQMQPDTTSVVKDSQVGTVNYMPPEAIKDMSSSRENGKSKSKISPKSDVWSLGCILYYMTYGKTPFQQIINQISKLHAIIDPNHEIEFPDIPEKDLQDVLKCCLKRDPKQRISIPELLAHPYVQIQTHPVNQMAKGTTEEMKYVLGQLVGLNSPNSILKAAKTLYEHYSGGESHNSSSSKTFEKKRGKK
# Method: Active TTK was purchased from Invitrogen as an amino terminal GST fusion of full length human TTK.
# TTK activity was measured using an indirect ELISA detection system. GST-TTK (0.68 nM) was incubated in the presence of 16 μM ATP (Sigma cat#A7699), 50 mM Hepes pH 7.2, 1 mM EGTA, 10 mM MgCl2, and 0.1% Pluronic in a 96 well microtitre plate pre-coated with amino terminal 6 histidine, sumo tagged TTK (amino acid residues 1-275). The reaction was allowed to proceed for 30 minutes, followed by 5 washes of the plate with Wash Buffer (phosphate buffered saline supplemented with 0.2% Tween 20), and incubation for 30 minutes with a 1:3000 dilution of primary antibody (Cell Signaling cat#9381). The plate was washed 5 times with Wash Buffer, incubated for 30 minutes in the presence of secondary antibody coupled to horse radish peroxidase (BioRad cat#1721019, 1:3000 concentration), washed an additional 5 times with Wash Buffer, and incubated in the presence of TMB substrate (Sigma cat#T0440). The colourimetric reaction was allowed to continue for 5 minutes, followed by addition of stop solution (0.5 N sulphuric acid), and quantified by detection at 450 nm with either a monochromatic or filter based plate reader (Molecular Devices M5 or Beckman DTX880, respectively).
# Compounds were pre-incubated in the presence of enzyme for 5 minutes prior to addition of ATP and the activity remaining quantified using the above described activity assay. The % Inhibition of a compound was determined using the following formula; % Inhibition=100×(1−(experimental value−background value)/(high activity control−background value)). The IC50 value was determined using a non-linear 4 point logistic curve fit (XLfit4, IDBS) with the formula; (A+(B/(1+((x/C)̂D)))), where A=background value, B=range, C=inflection point, D=curve fit parameter.
# HT29 colon cancer cells = assay: Cell growth inhibition, Sulforhodamine B assay, HT29; format: cell-based; settings: Homo sapiens, HT-29, 120 h, 5 days culture, SRB assay, read-out: Cell Line GI50 Range HT29
# Method: (§1) Breast cancer cells (MDA-MB-231, MDA-MB-468), colon cancer cells (HCT116, HT29) and ovarian cancer cells (PA-1, OVCAR-3) were seeded (1000 to 4000 in 80 μl per well depending on the cell growth rate) into 96 well plates 24 hours before compound overlay. Compounds were prepared as 10 mM stock solutions in 100% DMSO which were diluted with DMEM (Dulbecco's Modified Eagle's Medium) cell growth Medium (Invitrogen, Burlington, ON, Canada) containing 10% FBS (Fetal Bovine Serum) to concentrations ranging from 50 nM to 250 μM. Aliquots (20 μl) from each concentration were overlaid to 80 μl of the pre-seeded cells in the 96 well plates to make final concentrations of 10 nM to 50 μM. The cells were cultured for 5 days before the Sulforhodamine B assay (SRB) was performed to determine the compound's cell growth inhibition activity.
# (§2) Sulforhodamine B (purchased from Sigma, Oakville, ON, Canada) is a water-soluble dye that binds to the basic amino acids of the cellular proteins. Thus, colorimetric measurement of the bound dye provides an estimate of the total protein mass that is related to the cell number. the cells are fixed in situ by gently aspirating off the culture media and adding 50 μl ice cold 10% Trichloroacetic Acid (TCA) per well and incubate at 4° C. for 30-60 min, The plates are washed with water five times and allowed to air dry for 5 min. Addition of 50 μl 0.4% (w/v) SRB solution in 1% (v/v) acetic acid to each well and incubatation for 30 min at RT completes the staining reaction. Following staining, plates are washed four times with 1% acetic acid to remove unbound dye and then allowed to air dry for 5 min. The stain is solubilized with 100 μl of 10 mM Tris pH 10.5 per well. Absorbance is read at 570 nm.
# (§3) The percentage (%) of relative growth inhibition was calculated by comparing to DMSO treated only cells (100%). […] The GI50 was calculated using GraphPad PRISM software (GraphPad Software, Inc., San Diego, Calif., USA).
# [1] = tested on: PA-1 ovarian cancer cells; assay: Cell growth inhibition, Sulforhodamine B assay, PA-1; format: cell-based; settings: 120 h, 5 days culture, SRB assay, read-out: Cell Line GI50 Range PA-1
# Method: as §1, §2, §3
# [2] = tested on: OVCAR-3 ovarian cancer cells; assay: Cell growth inhibition, Sulforhodamine B assay, OVCAR-3; format: cell-based; settings: Homo sapiens, 120 h, 5 days culture, SRB assay, read-out: Cell Line GI50 Range OVCAR-3
# Method: as §1, §2, §3
# [3] = tested on: MDA-MB-468 breast cancer cells; assay: Cell growth inhibition, Sulforhodamine B assay, MDA-MB-468; format: cell-based; settings: Homo sapiens, 120 h, 5 days culture, SRB assay, read-out: Cell Line GI50 Range MDA-MB-468
# human PLK4 = target: T2, human PLK4 (Homo sapiens, UniProt O00444); assay: PLK4 inhibition assay (indirect ELISA); format: biochemical; settings: GST-PLK4 4 nM, 15 μM ATP; read-out: IC50 Ranges PLK4
# T2 construct: amino terminal GST fusion of residues 1-391 of human PLK4; made in house; host or cells: E. coli
# T2 sequence (O00444 1-391): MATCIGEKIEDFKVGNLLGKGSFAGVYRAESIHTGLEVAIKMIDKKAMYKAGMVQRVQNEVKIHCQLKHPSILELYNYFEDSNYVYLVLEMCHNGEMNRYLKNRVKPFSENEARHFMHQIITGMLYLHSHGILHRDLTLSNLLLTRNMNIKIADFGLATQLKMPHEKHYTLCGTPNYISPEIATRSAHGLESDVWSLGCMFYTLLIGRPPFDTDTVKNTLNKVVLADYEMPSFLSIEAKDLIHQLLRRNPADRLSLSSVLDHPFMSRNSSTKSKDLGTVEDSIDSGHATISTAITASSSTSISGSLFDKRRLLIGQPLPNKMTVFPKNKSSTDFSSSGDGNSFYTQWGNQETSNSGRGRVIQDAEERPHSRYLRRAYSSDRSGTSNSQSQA
# How it was run: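 Dephosphorylated GST-tagged human PLK4 (residues 1-391, E. coli), 4 nM, preincubated 15 min with compound, then reacted 30 min with 15 μM ATP on MBP-coated plates (50 mM HEPES pH 7.5, 10 mM MgCl2, 0.01% Brij 35). Phospho-MBP detected by antibody ELISA at 450 nm. Tested at 10 μM or 10-point titrations; IC50 from 4-parameter logistic fit.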
# Aurora B = target: T3, Aurora B (Homo sapiens, UniProt Q96GD4); assay: Aurora B inhibition assay (Z-Lyte); format: biochemical; settings: 28 nM Aurora B, 128 μM ATP; read-out: IC50 Ranges Aurora B
# T3 construct: purchased Invitrogen PV3970
# Method: Aurora B inhibition was determined using the Z-Lyte assay kit from Invitrogen. The assay was performed using the recommended manufacturer's instructions with 128 μM ATP and 28 nM Aurora B (Invitrogen cat #PV3970). The % inhibition values were determined according to the manufacturer's directions and IC50 values were obtained using a non-linear 4 point logistic curve fit (XLfit4, IDBS)
# [4] = tested on: HCT116 colon cancer cells; assay: Cell growth inhibition, Sulforhodamine B assay, HCT116; format: cell-based; settings: Homo sapiens, HCT-116, 120 h, 5 days culture, SRB assay, read-out: Cell Line GI50 Range HCT116
# Method: as §1, §2, §3
# [5] = tested on: MDA-MB-231 breast cancer cells; assay: Cell growth inhibition, Sulforhodamine B assay, MDA-MB-231; format: cell-based; settings: Homo sapiens, 120 h, 5 days culture, SRB assay, read-out: Cell Line GI50 Range MDA-MB-231
# Method: as §1, §2, §3
# T3 sequence (Q96GD4 whole entry): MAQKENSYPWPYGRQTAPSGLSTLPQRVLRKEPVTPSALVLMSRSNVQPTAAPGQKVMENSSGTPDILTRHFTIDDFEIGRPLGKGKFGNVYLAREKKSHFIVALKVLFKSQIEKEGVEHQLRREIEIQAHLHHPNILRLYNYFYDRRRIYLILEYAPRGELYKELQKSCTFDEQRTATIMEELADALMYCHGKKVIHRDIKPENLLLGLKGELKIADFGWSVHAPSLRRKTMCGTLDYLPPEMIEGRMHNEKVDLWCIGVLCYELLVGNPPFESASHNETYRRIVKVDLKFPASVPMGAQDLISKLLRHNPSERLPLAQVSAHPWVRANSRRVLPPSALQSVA
smiles,measurement,setting,value
"CN1CCC(Oc2ccc(-c3n[nH]c4ccc(NC(=O)C5CCCc6ccccc65)cc34)cc2)CC1 (stereo not drawn) [Example A18, N-(3-(4-((1-methylpiperidin-4-yl)oxy)phenyl)-1H-indazol-5-yl)-1,2,3,4-tetrahydronaphthalene-1-carboxamide]",IC50,human TTK,≤ 5 µM
same,GI50,HT29 colon cancer cells,≤ 5 µM
same,GI50,[1],≤ 5 µM
same,GI50,[2],≤ 5 µM
same,GI50,[3],≤ 5 µM
same,IC50,human PLK4,≤ 5 µM
same,IC50,Aurora B,≤ 5 µM
same,GI50,[4],≤ 5 µM
same,GI50,[5],≤ 5 µM
"Cc1ccccc1CC(=O)Nc1ccc2[nH]nc(-c3ccc(OC4CCN(C)CC4)cc3)c2c1 [Example A92, N-(3-(4-(1-Methylpiperidin-4-yloxy)phenyl)-1H-indazol-5-yl)-2-o-tolylacetamide]",IC50,human TTK,≤ 5 µM
same,GI50,HT29 colon cancer cells,≤ 5 µM
same,GI50,[1],≤ 5 µM
same,GI50,[2],≤ 5 µM
same,GI50,[3],≤ 5 µM
same,IC50,human PLK4,≤ 5 µM
same,IC50,Aurora B,≤ 5 µM
same,GI50,[4],≤ 5 µM
same,GI50,[5],≤ 5 µM
"CN1CCN(C)c2ccc(-c3n[nH]c4ccc(NC(=O)C(c5ccsc5)N5CCCC5)cc34)cc2C1 (stereo not drawn) [Example A93, N-(3-(1,4-dimethyl-2,3,4,5-tetrahydro-1H-benzo[e][1,4]diazepin-7-yl)-1H-indazol-5-yl)-2-(pyrrolidin-1-yl)-2-(thiophen-3-yl)acetamide]",IC50,human TTK,≤ 5 µM
same,GI50,HT29 colon cancer cells,≤ 5 µM
same,GI50,[1],≤ 5 µM
same,GI50,[2],5 to 20 µM
same,GI50,[3],≤ 5 µM
same,IC50,human PLK4,≤ 5 µM
same,IC50,Aurora B,≤ 5 µM
same,GI50,[4],≤ 5 µM
same,GI50,[5],≤ 5 µM
"CN1CCN(C(=O)c2cccc(-c3n[nH]c4ccc(NC(=O)C(c5ccsc5)N5CCCC5)cc34)c2)CC1 (stereo not drawn) [Example A96, N-(3-(3-(4-Methylpiperazine-1-carbonyl)phenyl)-1H-indazol-5-yl)-2-(pyrrolidin-1-yl)-2-(thiophen-3-yl)acetamide]",IC50,human TTK,≤ 5 µM
same,GI50,HT29 colon cancer cells,5 to 20 µM
same,GI50,[1],5 to 20 µM
same,GI50,[2],5 to 20 µM
same,GI50,[3],5 to 20 µM
same,IC50,human PLK4,≤ 5 µM
same,IC50,Aurora B,5 to 50 µM
same,GI50,[4],5 to 20 µM
same,GI50,[5],5 to 20 µM
"CN1CCC(Oc2cccc(-c3n[nH]c4ccc(NC(=O)C(c5ccsc5)N5CCCC5)cc34)c2)CC1 (stereo not drawn) [Example A99, N-(3-(3-((1-methylpiperidin-4-yl)oxy)phenyl)-1H-indazol-5-yl)-2-(pyrrolidin-1-yl)-2-(thiophen-3-yl)acetamide]",IC50,human TTK,≤ 5 µM
same,GI50,HT29 colon cancer cells,≤ 5 µM
same,GI50,[1],≤ 5 µM
same,GI50,[2],≤ 5 µM
same,GI50,[3],≤ 5 µM
same,IC50,human PLK4,≤ 5 µM
same,IC50,Aurora B,≤ 5 µM
same,GI50,[4],≤ 5 µM
same,GI50,[5],≤ 5 µM
"O=C(NC(c1ccccc1)C1CC1)c1ccc2[nH]nc(-c3ccc(OC4CCN(CCO)CC4)cc3)c2c1 (stereo not drawn) [Example A104, N-(cyclopropyl(phenyl)methyl)-3-(4-((1-(2-hydroxyethyl)piperidin-4-yl)oxy)phenyl)-1H-indazole-5-carboxamide]",IC50,human TTK,≤ 5 µM
same,GI50,HT29 colon cancer cells,≤ 5 µM
same,GI50,[1],≤ 5 µM
same,GI50,[2],≤ 5 µM
same,GI50,[3],≤ 5 µM
same,IC50,human PLK4,≤ 5 µM
same,IC50,Aurora B,≤ 5 µM
same,GI50,[4],≤ 5 µM
same,GI50,[5],≤ 5 µM
"CN1CCC(Oc2ccc(-c3n[nH]c4ccc(C(=O)NCc5ccccc5N5CCOCC5)cc34)cc2)CC1 [Example A108, 3-(4-(1-Methylpiperidin-4-yloxy)phenyl)-N-(2-morpholinobenzyl)-1H-indazole-5-carboxamide]",IC50,human TTK,≤ 5 µM
same,GI50,HT29 colon cancer cells,≤ 5 µM
same,GI50,[1],≤ 5 µM
same,GI50,[2],≤ 5 µM
same,GI50,[3],≤ 5 µM
same,IC50,human PLK4,≤ 5 µM
same,IC50,Aurora B,≤ 5 µM
same,GI50,[4],≤ 5 µM
same,GI50,[5],≤ 5 µM
"CN1CCC(Oc2ccc(-c3n[nH]c4ccc(C(=O)NCc5ccccc5CO)cc34)cc2)CC1 [Example A142, N-(2-(hydroxymethyl)benzyl)-3-(4-((1-methylpiperidin-4-yl)oxy)phenyl)-1H-indazole-5-carboxamide]",IC50,human TTK,≤ 5 µM
same,GI50,HT29 colon cancer cells,≤ 5 µM
same,GI50,[1],≤ 5 µM
same,GI50,[2],5 to 20 µM
same,GI50,[3],≤ 5 µM
same,IC50,human PLK4,≤ 5 µM
same,GI50,[4],≤ 5 µM
same,GI50,[5],≤ 5 µM
"CO[C@@H](C(=O)Nc1ccc2[nH]nc(-c3ccc(OCC4CCN(C)CC4)cc3)c2c1)c1ccccc1 [Example A145, (R)-2-methoxy-N-(3-(4-((1-methylpiperidin-4-yl)methoxy)phenyl)-1H-indazol-5-yl)-2-phenylacetamide]",IC50,human TTK,≤ 5 µM
same,GI50,HT29 colon cancer cells,≤ 5 µM
same,GI50,[1],≤ 5 µM
same,GI50,[2],≤ 5 µM
same,GI50,[3],≤ 5 µM
same,IC50,human PLK4,≤ 5 µM
same,GI50,[4],≤ 5 µM
same,GI50,[5],≤ 5 µM
"CN1CCC(Oc2ccc(-c3n[nH]c4ccc(NC(=O)C5OCCc6ccccc65)cc34)cc2)CC1 (stereo not drawn) [Example A146, N-(3-(4-(1-Methylpiperidin-4-yloxy)phenyl)-1H-indazol-5-yl)isochroman-1-carboxamide]",IC50,human TTK,≤ 5 µM
same,GI50,HT29 colon cancer cells,≤ 5 µM
same,GI50,[1],≤ 5 µM
same,GI50,[2],≤ 5 µM
same,GI50,[3],≤ 5 µM
same,IC50,human PLK4,≤ 5 µM
same,GI50,[4],≤ 5 µM
same,GI50,[5],≤ 5 µM
"COc1ccccc1C(C(=O)Nc1ccc2[nH]nc(-c3ccc(OC4CCN(C)CC4)cc3)c2c1)C1CCCC1 (stereo not drawn) [Example A156, 2-cyclopentyl-2-(2-methoxyphenyl)-N-(3-(4-((1-methylpiperidin-4-yl)oxy)phenyl)-1H-indazol-5-yl)acetamide]",IC50,human TTK,≤ 5 µM
same,GI50,HT29 colon cancer cells,≤ 5 µM
same,GI50,[1],≤ 5 µM
same,GI50,[2],≤ 5 µM
same,GI50,[3],≤ 5 µM
same,IC50,human PLK4,≤ 5 µM
same,GI50,[4],≤ 5 µM
same,GI50,[5],≤ 5 µM
"CN1CCC(Oc2ccc(-c3n[nH]c4ccc(NC(=O)C(c5ccccc5F)C5CCCC5)cc34)cc2)CC1 (stereo not drawn) [Example A162, 2-cyclopentyl-2-(2-fluorophenyl)-N-(3-(4-((1-methylpiperidin-4-yl)oxy)phenyl)-1H-indazol-5-yl)acetamide]",IC50,human TTK,≤ 5 µM
same,GI50,HT29 colon cancer cells,≤ 5 µM
same,GI50,[1],≤ 5 µM
same,GI50,[2],≤ 5 µM
same,GI50,[3],≤ 5 µM
same,IC50,human PLK4,≤ 5 µM
same,GI50,[4],≤ 5 µM
same,GI50,[5],≤ 5 µM
"COCCN1CCC(Oc2ccc(-c3n[nH]c4ccc(C(=O)N[C@H](COC)c5ccccc5)cc34)cc2)CC1 [Example A164, (S)—N-(2-methoxy-1-phenylethyl)-3-(4-((1-(2-methoxyethyl)piperidin-4-yl)oxy)phenyl)-1H-indazole-5-carboxamide]",IC50,human TTK,≤ 5 µM
same,GI50,HT29 colon cancer cells,≤ 5 µM
same,GI50,[1],≤ 5 µM
same,GI50,[2],≤ 5 µM
same,GI50,[3],≤ 5 µM
same,IC50,human PLK4,≤ 5 µM
same,GI50,[4],≤ 5 µM
same,GI50,[5],≤ 5 µM

# Source: patent US20140051679A1, “KINASE INHIBITORS AND METHOD OF TREATING CANCER WITH SAME” (UNIVERISTY HEALTH NETWORKS, priority 2011, published 2014)
